These results are taken from patent US7868005B2, “Pyrazinyl substituted piperazine-piperidines with CXCR3 antagonist activity” (Schering Corporation, priority 2005, dated 2011).

Usually IC50 stands for the concentration at which inhibition is half-maximal.

The target of the experiment is T1, human CXCR3 (N-delta 4) (Homo sapiens, UniProt P49682).
T1 construct: CD8 leader (N); Flag; expressed in transfected cells; membranes prepared
T1 sequence (P49682 5-368 limits assumed): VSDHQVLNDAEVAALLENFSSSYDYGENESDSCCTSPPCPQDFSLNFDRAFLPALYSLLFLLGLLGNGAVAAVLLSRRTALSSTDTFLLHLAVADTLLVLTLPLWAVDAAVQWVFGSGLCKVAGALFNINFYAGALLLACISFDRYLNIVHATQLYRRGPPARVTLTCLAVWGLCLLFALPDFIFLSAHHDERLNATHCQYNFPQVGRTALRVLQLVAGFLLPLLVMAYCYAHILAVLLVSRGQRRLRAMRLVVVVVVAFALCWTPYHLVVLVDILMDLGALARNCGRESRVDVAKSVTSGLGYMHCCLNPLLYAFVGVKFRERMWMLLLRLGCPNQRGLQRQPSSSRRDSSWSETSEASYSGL
The experiment is described as follows: Human CXCR3 (N-delta 4) Scintillation Proximity Assay (SPA), [125I] IP-10 binding to Ba/F3-hCXCR3 membranes. The following applies: IC50 rating, Table 1; read-out: IC50. A general note: Scintillation proximity formats need no separation of bound from free tracer.
Consider `CC[C@H]1CN(c2nc(N)c(C(=O)NC)nc2Cl)CCN1C1CCN(C(=O)c2ccc(OC(F)(F)F)cc2)CC1` [compound 350], for which the IC50 is 25 to 100 nM.

For the compound `CC[C@H]1CN(c2nc(N)c(C(=O)NCCO)nc2Cl)CCN1C1CCN(C(=O)c2ccc(F)c(F)c2F)CC1` [compound 351], the IC50 was in the range of 25 to 100 nM.

For `CC[C@H]1CN(c2nc(N)c(C(=O)NCCO)nc2Cl)CCN1C1CCN(C(=O)c2ccc(Cl)cc2CCNC(C)=O)CC1` [compound 352], the IC50 is greater than 100 nM.

For the compound `CC[C@H]1CN(c2nc(N)c(C(=O)NC)nc2Cl)CCN1C1CCN(C(=O)c2ccc(-n3cccn3)cc2)CC1` [compound 353], the IC50 is greater than 100 nM.

On to `CC[C@H]1CN(c2nc(N)c(C(=O)NC)nc2Cl)CCN1C1CCN(C(=O)c2ccc(-c3cnco3)cc2)CC1` [compound 354], for which the IC50 is greater than 100 nM.

Consider `CC[C@H]1CN(c2nc(N)c(C(=O)NCCN/C(N)=N/C#N)nc2Cl)CCN1C1CCN(C(=O)c2ccc(Cl)cc2)CC1` [compound 355], for which the IC50 was greater than 100 nM.

In the case of `CC[C@H]1CN(c2nc(N)c(C(=O)NC[C@@H](O)CO)nc2Cl)CCN1C1CCN(C(=O)c2ccc(Cl)cc2)CC1` [compound 356], the IC50 was greater than 100 nM.

As to `CC[C@H]1CN(c2nc(N)c(C(N)=O)nc2Cl)CCN1C1CCN(C(=O)c2ccc(Cl)cc2CC(N)=O)CC1` [compound 357], the IC50 was greater than 100 nM.

Take `CC[C@H]1CN(c2nc(N)c(C(=O)NN)nc2Cl)CCN1C1CCN(C(=O)c2ccc(Cl)cc2)CC1` [compound 358]: the IC50 was greater than 100 nM.

Regarding `CC[C@H]1CN(c2nc(N)c(C(=O)NC[C@H](O)CO)nc2Cl)CCN1C1CCN(C(=O)c2ccc(Cl)cc2)CC1` [compound 359], the half-inhibitory concentration (IC50) is greater than 100 nM.

Take `CC[C@H]1CN(c2nc(N)c(C(=O)NCCO)nc2Cl)CCN1C1CCN(C(=O)c2ccc(F)c(F)c2NCc2ccccc2)CC1` [compound 360]: the IC50 was greater than 100 nM.

As to `CC[C@H]1CN(c2nc(N)c(C(=O)NCCO)nc2Cl)CCN1C1CCN(C(=O)c2ccc(OC(F)(F)F)cc2O)CC1` [compound 361], the IC50 is greater than 100 nM.

Regarding `CC[C@H]1CN(c2nc(N)c(C(=O)NCCO)nc2Cl)CCN1C1CCN(C(=O)c2ccc(Cl)cc2OC)CC1` [compound 362], the IC50 was greater than 100 nM.

As to `CC[C@H]1CN(c2nc(N)c(C(=O)NCCO)nc2Cl)CCN1C1CCN(C(=O)c2cc(F)c(F)cc2NC(=O)c2cc(F)c(F)cc2N)CC1` [compound 363], the IC50 was greater than 100 nM.

With `CC[C@H]1CN(c2nc(N)c(C(=O)NC)nc2Cl)CCN1C1CCN(C(=O)c2ccc(Cl)c(NS(C)(=O)=O)c2)CC1` [compound 364], the IC50 was greater than 100 nM.

With `CC[C@H]1CN(c2nc(N)c(C(=O)NC)nc2Cl)CCN1C1CCN(C(=O)c2ccc(Cl)c(N)c2)CC1` [compound 365], the IC50 was greater than 100 nM.

Regarding `CC[C@H]1CN(c2nc(N)c(C(=O)NC)nc2Cl)CCN1C1CCN(C(=O)c2ccc(Cl)cc2NC)CC1` [compound 366], the 50% inhibitory concentration (IC50) was greater than 100 nM.

Turning to `CC[C@H]1CN(c2nc(N)c(C(=O)NC)nc2Cl)CCN1C1CCN(C(=O)c2c(C)cc(OCc3ccccc3)cc2C)CC1` [compound 367], the IC50 was greater than 100 nM.

With `CC[C@H]1CN(c2nc(N)c(C(=O)NC)nc2Cl)CCN1C1CCN(C(=O)C2Cc3ccccc3C2)CC1` [compound 368], the IC50 is greater than 100 nM.

As to `CC[C@H]1CN(c2nc(N)c(C(=O)NC)nc2Cl)CCN1C1CCN(C(=O)C2(N)CCc3ccccc3C2)CC1` (stereo partly drawn) [compound 369], the IC50 was greater than 100 nM.

Turning to `CC[C@H]1CN(c2nc(N)c(C(=O)NC)nc2Cl)CCN1C1CCN(C(=O)C2CCc3ccccc3C2)CC1` (stereo partly drawn) [compound 370], the IC50 is less than 25 nM.

Take `CC[C@H]1CN(c2nc(N)c(C(=O)NC)nc2Cl)CCN1C1CCN(C(=N)c2ccc(Cl)cc2)CC1` [compound 371]: the IC50 was less than 25 nM.

Take `CC[C@H]1CN(c2nc(N)c(C(=O)OC)nc2Cl)CCN1C1CCN(C(=O)c2ccc(Cl)cc2C(C)C#N)CC1` (stereo partly drawn) [compound 372]: the IC50 was greater than 100 nM.

As to `CC[C@H]1CN(c2nc(N)c(C(=O)NNC(C)=O)nc2Cl)CCN1C1CCN(C(=O)c2ccc(Cl)cc2)CC1` [compound 373], the IC50 is greater than 100 nM.

As to `CC[C@H]1CN(c2nc(N)c(C(=O)NCCO[Si](C(C)C)(C(C)C)C(C)C)nc2Cl)CCN1C1CCN(Cc2ccc(F)c(F)c2N2CC[C@H](O)C2)CC1` [compound 374], the IC50 is greater than 100 nM.

Consider `CC[C@H]1CN(c2nc(N)c(C(N)=O)nc2Cl)CCN1C1CCN(Cc2ccc(Cl)cc2C2COC(=O)O2)CC1` (stereo partly drawn) [compound 375], for which the IC50 is 25 to 100 nM.

Consider `CC[C@H]1CN(c2nc(N)c(C(N)=O)nc2Cl)CCN1C1CCN(Cc2ccc(Cl)cc2NC(=O)C(C)O)CC1` (stereo partly drawn) [compound 377], for which the IC50 was in the range of 25 to 100 nM.

In the case of `CC[C@H]1CN(c2nc(N)c(C(N)=O)nc2Cl)CCN1C1CCN(Cc2ccc(Cl)cc2C(O)C(=O)N(C)C)CC1` (stereo partly drawn) [compound 378], the IC50 is less than 25 nM.

As to `CC[C@H]1CN(c2ncc(C(N)=O)nc2OC)CCN1C1CCN(C(=O)c2ccc(Cl)cc2)CC1` [compound 379], the IC50 is greater than 100 nM.

Take `CC[C@H]1CN(c2nc(N)c(C(N)=O)nc2Cl)CCN1C1CCN(Cc2ccc(Cl)cc2C2NC(=O)N(C)C2=O)CC1` (stereo partly drawn) [compound 380]: the IC50 is greater than 100 nM.

On to `CC[C@H]1CN(c2nc(N)c(C(N)=O)nc2Cl)CCN1C1CCN(Cc2ccc(Cl)cc2C(N)C(N)=O)CC1` (stereo partly drawn) [compound 381], for which the IC50 was in the range of 25 to 100 nM.

In the case of `CC[C@H]1CN(c2nc(N)c(C(N)=O)nc2Cl)CCN1C1CCN(Cc2ccc(Cl)cc2C(NC(C)=O)C(N)=O)CC1` (stereo partly drawn) [compound 382], the concentration for half-maximal inhibition (IC50) is greater than 100 nM.

Regarding `CC[C@H]1CN(c2ncc(C(N)=O)nc2NC)CCN1C1CCN(C(=O)c2ccc(Cl)cc2)CC1` [compound 383], the IC50 was greater than 100 nM.

In the case of `CC[C@H]1CN(c2ncc(C(=O)NC)nc2NC)CCN1C1CCN(C(=O)c2ccc(Cl)cc2)CC1` [compound 384], the IC50 is greater than 100 nM.

Turning to `CC[C@H]1CN(c2nc(N)c(C(N)=O)nc2Cl)CCN1C1CCN(Cc2ccc(Cl)cc2C2CNC(=O)O2)CC1` (stereo partly drawn) [compound 385], the IC50 was less than 25 nM.

Take `CC[C@H]1CN(c2nc(N)c(C(N)=O)nc2Cl)CCN1C1CCN(Cc2ccc(Cl)cc2N2CCN(C)C2=O)CC1` [compound 386]: the IC50 is less than 25 nM.

Regarding `CC[C@H]1CN(c2ncc(C(N)=O)nc2Br)CCN1C1CCN(C(=O)c2ccc(Cl)cc2)CC1` [compound 387], the IC50 is less than 25 nM.

For `CC[C@H]1CN(c2ncc(C(N)=O)nc2C)CCN1C1CCN(C(=O)c2ccc(Cl)cc2)CC1` [compound 388], the IC50 was less than 25 nM.

For the compound `CC[C@H]1CN(c2nc(N)c(C(=O)NC(=N)NC)nc2Cl)CCN1C1CCN(Cc2ccc(Cl)c(F)c2)CC1` [compound 389], the IC50 is less than 25 nM.

With `CC[C@H]1CN(c2nc(N)c(C(=O)NC(=N)NC)nc2Cl)CCN1C1CCN(Cc2ccc(Cl)cc2)CC1` [compound 390], the IC50 is less than 25 nM.

Turning to `CC[C@H]1CN(c2nc(N)c(C(=O)NC(=N)NC)nc2Cl)CCN1C1CCN(Cc2ccc(OC(F)(F)F)cc2)CC1` [compound 391], the IC50 was less than 25 nM.

In the case of `CC[C@H]1CN(c2nc(N)c(C(=O)NC(=N)NC)nc2Cl)CCN1C1CCN(C(=O)c2ccc(Cl)c(F)c2)CC1` [compound 392], the IC50 is less than 25 nM.

Regarding `CC[C@H]1CN(c2nc(N)c(C(=O)NC(=N)NC)nc2Cl)CCN1C1CCN(C(=O)c2ccc(Cl)cc2)CC1` [compound 393], the IC50 is less than 25 nM.

As for `CC[C@H]1CN(c2nc(N)c(C(=O)NCCO)nc2Cl)CCN1C1CCN(Cc2ccc(F)c(OC)c2)CC1` [compound 394], the IC50 is less than 25 nM.

Take `CC[C@H]1CN(c2ncc(C(N)=O)nc2Cl)CCN1C1CCN(Cc2ccc(Cl)cc2[C@H](O)C(N)=O)CC1` [compound 396]: the IC50 was less than 25 nM.

Take `CC[C@H]1CN(c2nc(N)c(C(=O)NCCO)nc2Cl)CCN1C1CCN(Cc2ccc(OC)c(F)c2)CC1` [compound 397]: the IC50 was less than 25 nM.

With `CC[C@H]1CN(c2nc(N)c(C(=O)NC(=N)NC)nc2Cl)CCN1C1CCN(C(=O)c2ccc(F)c(F)c2)CC1` [compound 398], the half-maximal inhibitory concentration (IC50) is less than 25 nM.

As to `CC[C@H]1CN(c2nc(N)c(C(=O)NC(=N)NC)nc2Cl)CCN1C1CCN(C(=O)c2ccc(C#N)cc2)CC1` [compound 399], the IC50 is less than 25 nM.

Regarding `CC[C@H]1CN(c2nc(N)c(C(N)=O)nc2Cl)CCN1C1CCN(Cc2ccc(Cl)cc2S(N)(=O)=O)CC1` [compound 401], the IC50 is less than 25 nM.

`CC[C@H]1CN(c2nc(N)c(C(=O)NC(=N)NC)nc2Cl)CCN1C1CCN(C(=O)c2ccc(OC(F)(F)F)cc2)CC1` [compound 402]: the IC50 was less than 25 nM.

Take `CC[C@H]1CN(c2nc(N)c(C(N)=O)nc2Cl)CCN1C1CCN(Cc2ccc(Cl)cc2C2NC(=O)NC2=O)CC1` (stereo partly drawn) [compound 405]: the IC50 was greater than 100 nM.

With `CC[C@H]1CN(c2nc(N)c(C(N)=O)nc2Cl)CCN1C1CCN(Cc2ccc(Cl)cc2C2OC(=O)N(C)C2=O)CC1` (stereo partly drawn) [compound 406], the IC50 is greater than 100 nM.

For `CC[C@H]1CN(c2nc(N)c(C(N)=O)nc2Cl)CCN1C1CCN(Cc2ccc(Cl)cc2C2OC(=O)NC2=O)CC1` (stereo partly drawn) [compound 407], the IC50 is greater than 100 nM.

`CC[C@H]1CN(c2ncc(C(N)=O)nc2C)CCN1C1CCN(C(=O)c2ccc(F)c(F)c2)CC1` [compound 408]: the IC50 fell in the range of 25 to 100 nM.

As for `CC[C@H]1CN(c2ncc(C(N)=O)nc2Cl)CCN1C1CCN(C(=O)c2ccc(Cl)c(OCCS(C)(=O)=O)c2)CC1` [compound 409], the IC50 is less than 25 nM.

Consider `CC[C@H]1CN(c2nc(N)c(C(=O)NCCO)nc2Cl)CCN1C1CCN(Cc2ccc(Cl)c(OCCS(C)(=O)=O)c2)CC1` [compound 410], for which the IC50 is less than 25 nM.

For the compound `CC[C@H]1CN(c2nc(N)c(C(N)=O)nc2Cl)CCN1C1CCN(Cc2ccc(Cl)c(OCCS(C)(=O)=O)c2)CC1` [compound 411], the IC50 was less than 25 nM.
